≈ marks a conversion by molar mass, not a printed value. Read-outs that look alike come from different tables or passages of the source.
Columns and labels:
[1] = tested on: human non-cancerous skin cells; design: method as in PMID 34500657; settings: 24 h, reference drug; cited from earlier work
PNT2 = experiment: MTT viability assay, normal prostate epithelial cells; assay type: cell-based, human; settings: Homo sapiens, PNT2; normal prostate epithelial cells, reference drug, time not given; read-out: IC50
Text: (§1) Cell lines of different origins were used in the study and grouped as follows: prostate panel (human prostate carcinomas: DU145, derived from metastatic site: brain; grade IV PC3, derived from metastatic site: bone; LNCaP, derived from the metastatic site: lymph node; prostate epithelial, PNT2), colon panel (colorectal adenocarcinomas: HT29, originating from a primary tumor; Duke’s type C DLD-1, with the potential to lymph node metastasis; highly metastatic HCT116; colon epithelial cells CCD 841 CoN), thyroid panel (follicular thyroid carcinoma FTC133, anaplastic thyroid carcinoma 8505C, papillary thyroid carcinoma TPC-1, normal thyroid follicular epithelial Nthy-ori 3–1), breast panel (ER-positive breast adenocarcinoma MCF7, ER-negative breast adenocarcinoma MDA-MB-231, breast epithelial MCF10A), brain panel (neuroblastoma SH-SY5Y, glioblastoma U-87 MG, murine astrocytes C8D1A). All cell lines were purchased from Merck (Darmstadt, Germany).
(§2) Cells were grown under standard conditions (37 °C, 5% CO2) and culture media (DMEM/F12 for PNT2, PC3, FTC133, 8505 C, MDA-MB-231, TPC-1; DMEM Low Glucose for DU145; DMEM High Glucose for HCT116, DLD-1, SH-SY5Y, U87MG, C8D1A; MEM with NEAA for MCF7; MEM for CCD 841 CoN; McCoy’s for HT29; RPMI1640 with sodium pyruvate for LNCaP; DMEM/F12 with 20 ng/mL epidermal growth factor (EGF), 10 μg/mL insulin, 0.5 μg/mL hydrocortisone, 100 ng/mL cholera toxin) for MCF10A), supplemented with 10% fetal bovine serum (FBS) or 5% donor horse serum for MCF10A, and 1% antibiotics solution (10,000 U penicillin and 10 mg streptomycin/mL). The tested substances were prepared as 10 mg/mL stock solutions in DMSO and further diluted in the culture media to the working concentrations. Cells were treated with UA enantiomers at the concentration range of 0–50 µg/mL. The influence of DMSO on cell viability was also examined, with the final concentration […], and no toxic effect was noted.
(§3) The cells were seeded onto 96-well plates at a density of 1.5 × 10^4 cells/well. After 24 h UA enantiomers were added. Cell viability was determined after 24, 48, and 72 h by the MTT assay, as described previously. Doxorubicin was used as a reference cytostatic drug. All analyses were performed in triplicate; cell viability was expressed as % of control, untreated cells (mean ± SD), and IC50 values (concentration at which cell viability is inhibited by 50%), if possible.

C8D1A = experiment: MTT viability assay, normal astrocytes C8D1A; assay type: cell-based, murine; settings: Mus musculus, C8-D1A; murine astrocytes, 24 h, reference drug
Text: as §1, §2, §3

WM793 cells = tested on: WM793 cells; design: method as in PMID 34577645; settings: WM793, reference drug, time not given; cited from earlier work
HepG2 cells = tested on: HepG2 cells; design: method as in PMID 40368021; settings: HepG2, 24 h, reference drug; cited from earlier work
CCD 841 CoN = experiment: MTT viability assay, normal colon epithelial cells; assay type: cell-based, human; settings: Homo sapiens, CCD-841CoN; normal colon epithelial cells, 24 h, reference drug; read-out: IC50
Text: as §1, §2, §3

FemX = tested on: FemX; design: method as in PMID 23203090; settings: 72 h; cited from earlier work
518A2 = tested on: 518A2; design: method as in PMID 27936296; settings: 518A2, 72 h, cited from earlier work

SMILES	IC50 [1]	IC50 (PNT2)	IC50 (C8D1A)	IC50 (WM793 cells)	IC50 (hepatotoxicity) (HepG2 cells)	IC50 (CCD 841 CoN)	IC50 (FemX)	IC50 (518A2; recalculated from µM by the authors)	IC50 (518A2; read-out: IC50)
COc1cccc2c1C(=O)c1c(O)c3c(c(O)c1C2=O)C[C@@](O)(C(=O)CO)C[C@@H]3O[C@H]1C[C@H](N)[C@H](O)[C@H](C)O1 [doxorubicin, reference compound]	4.7 µg/mL (≈ 8.65 µM)	1.4 µg/mL (≈ 2.58 µM)	2.25 µg/mL (≈ 4.14 µM)	> 100 µg/mL	1.03 µg/mL (≈ 1.9 µM)	2.25 µg/mL (≈ 4.14 µM)			
CC(=O)c1c(O)c(C)c(O)c2c1OC1=CC(=O)C(C(C)=O)C(=O)C12C (stereo not drawn) [UA, Usnic acid]							12.72 µg/mL (≈ 36.9 µM)	≈ 2 µg/mL	5.4 µM

Reference: paper PMC12298648, “An Evaluation of the Cytotoxicity and Safety Profile of Usnic Acid for a Broad Panel of Human Cancers and Normal Cells with Respect to Its Enantiospecificity” (Molecules, 2025)
